Assay results taken from US8324131B2, “Composition and method for controlling plant diseases” (Sumitomo Chemical Company, Limited, priority 2008, dated 2012).

Tests used:
[1] = tested on: Pythium ultimum, pathogen of cucumber damping-off; assay: Cucumber damping-off seed treatment test (Test Example 1); assay type: in vivo; details: 18° C., 13 days
Excerpt: An acetone solution of ethaboxam and an acetone solution of metconazole were mixed to prepare mixed liquids containing ethaboxam and metconazole in predetermined concentration. These mixed liquids were adhered on the surface of cucumber (Sagamihanjiro) seeds and allowed to stand still overnight. A plastic pot was filled with sandy soil and the seeds were disseminated on it. Then the seeds were covered with sandy soil which had been mixed with a bran medium on which Pythium ultimum, pathogen of cucumber damping-off, had been allowed to grow. They were irrigated and allowed to grow at 18° C. under humidity for 13 days, and thereafter control effect was checked.
As a comparison, acetone solutions containing ethaboxam in the predetermined concentration and acetone solutions containing metconazole in the predetermined concentration were prepared and subjected to similar tests.
In order to calculate the control value, the incidence of disease was also determined in the case in which the seeds had not been treated with the agent.
The incidence of disease was calculated by Equation 1 and the control value was calculated by Equation 2 based on the incidence of disease.
Incidence of disease=(Number of no emerging seedlings and number of seedlings in which development of disease was observed)×100/(Number of total disseminated seeds) “Equation 1” Control value=100×(A−B)/A “Equation 2”;
A: Incidence of disease of plant in untreated area
B: Incidence of disease of plant in treated area
Generally, the control value expected for the case in which the given two kinds of active ingredient compounds are mixed and used for the treatment, the so-called control value expectation is calculated from the following Colby's calculating equation. E=X+Y−(X×Y)/100 “Equation 3”;
X: Control value (%) when active ingredient compound A is used for treatment in M g per 100 kg or M ppm of seeds
Y: Control value (%) when active ingredient compound B is used for treatment in N g per 100 kg or N ppm of seeds
E: Control value (%) expected for the case in which active ingredient compound A in M g per 100 kg or M ppm of seeds and active ingredient compound B in N g per 100 kg or N ppm of seeds are mixed and used for treatment (hereinbelow referred to as “control value expectation”) “Synergetic effect (%)” (Actual control value)×100/(Control value expectation)

[2] = tested on: pathogen of cucumber gray mold; assay: Cucumber gray mold foliar spray test (Test Example 2); assay type: in vivo, Botrytis cinerea; details: 12.5 ppm of each test compound; for Actual control value: spray to stalk and leaves of cucumber seedlings, 12° C., high humidity, 6 days
Excerpt: A plastic pot was filled with sandy soil and cucumber (Sagamihanjiro) seeds were disseminated on it. Then the seeds were allowed to grow in a glasshouse for 12 days. A wettable powder of ethaboxam and a wettable powder of metconazole were individually diluted with water and then mixed to prepare mixed liquids containing ethaboxam and metconazole in predetermined concentration. These mixed liquids were sprayed to the stalk and leaves of cucumber seedlings to adhere them sufficiently on the surface of leaves of the seedlings. After spraying, the cucumber seedlings were air-dried and a PDA medium containing spores of pathogen of cucumber gray mold was placed onto the leaves of the seedlings. Then the plants were allowed to stand at 12° C. under high humidity for 6 days, and thereafter control effect was checked.
As a comparison, mixed liquids containing ethaboxam and triadimefon, mixed liquids containing ethaboxam and triadimenol, and mixed liquids containing ethaboxam and imazalil were prepared, sprayed to the stalk and leaves of cucumber seedlings to adhere them sufficiently on the surface of leaves of the seedlings, and subjected to similar tests, respectively. In addition, the above wettable powder of ethaboxam and the above wettable powder of metconazole were individually diluted with water to prepare liquids containing ethaboxam in predetermined concentration and liquids containing metconazole in predetermined concentration and then subjected to similar tests.
The incidence of disease was calculated by Equation 4 and the control value was calculated by Equation 2 based on the incidence of disease.
Incidence of disease=(diameter of leaf spot of plant in treated area)/(diameter of leaf spot of plant in untreated area)×100 “Equation 4”

SMILES	Actual control value ([1]; Ethaboxam 5 g/100 kg-seed alone) [%]	Actual control value ([1]; Ethaboxam 10 g/100 kg-seed alone) [%]	Control value expectation [2] [%]	Actual control value [2] [%]	Actual control value ([1]; Metconazole 5 g/100 kg-seed alone) [%]	Actual control value ([1]; Metconazole 10 g/100 kg-seed alone) [%]	Actual control value ([1]; Metconazole 20 g/100 kg-seed alone) [%]
CCNc1nc(CC)c(C(=O)NC(C#N)c2cccs2)s1 (stereo not drawn) [Ethaboxam]	25	58	0	0	–	–	–
CC1(C)CCC(Cc2ccc(Cl)cc2)C1(O)Cn1cncn1 (stereo not drawn) [Metconazole]	–	–	0	0	0	0	0
